Data: patent US8575197B2, “Pyrolinone derivative and pharmaceutical composition comprising the same” (Shionogi & Co., Ltd., priority 2008, dated 2013)

The compounds below were run against human P2X3 receptor (Homo sapiens (Human), UniProt P56373) (assay: P2X3 receptor inhibition, ATP-evoked Fluo-3 calcium fluorescence (FDSS 3000)). Conditions: C6BU-1 cell transfected with human P2X3 receptor gene; ATP-evoked Fluo-3 fluorescence.
human P2X3 receptor, sequence (P56373 whole entry): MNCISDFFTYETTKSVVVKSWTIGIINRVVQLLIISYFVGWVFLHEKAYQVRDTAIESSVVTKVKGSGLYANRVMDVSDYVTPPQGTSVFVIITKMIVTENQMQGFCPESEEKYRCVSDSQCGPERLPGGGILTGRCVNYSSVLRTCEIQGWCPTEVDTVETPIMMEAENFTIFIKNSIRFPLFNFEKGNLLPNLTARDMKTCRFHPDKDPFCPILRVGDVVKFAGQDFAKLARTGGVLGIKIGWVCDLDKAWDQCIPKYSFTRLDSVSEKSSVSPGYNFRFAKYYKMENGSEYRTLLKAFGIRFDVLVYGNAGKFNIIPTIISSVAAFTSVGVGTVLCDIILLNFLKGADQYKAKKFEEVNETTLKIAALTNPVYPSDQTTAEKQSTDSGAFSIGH
Assay type: cell-based
Procedure: Stably expressing cell line (C6BU-1 cell transfected with human P2X3 receptor gene (GenBank accession number Y07683)) was used. The cells were seeded in a 96-well microtiter plate at a concentration of 8000 cells/well and cultured in the medium (8.3% fetal bovine serum, 8.3% horse serum, 1% antibiotic and antifungal in DMEM) for one day at 37° C. under 5% carbon dioxide atmosphere. The medium was replaced with 4 μM Fluo-3-AM solution (pH7.5) containing 20 mM HEPES, 137 mM NaCl, 2.7 mM KCl, 0.9 mM MgCl2, 5.0 mM CaCl2, 5.6 mM D-glucose, 2.5 mM probenecid, 10% BSA, and 0.08% Pluronic F-127, and incubated at 37° C. under 5% dioxide carbon atmosphere for one hour. The plate was washed with washing buffer (20 mM HEPES, 137 mM NaCl, 2.7 mM KCl, 0.9 mM MgCl2, 5.0 mM CaCl2, 5.6 mM D-glucose, 2.5 mM probenecid, pH7.5), and each well was added with 40 μL of this buffer. The plate was placed in High-Throughput Screening System FDSS 3000 (Hamamatsu Photonics K.K.). Measurement of fluorescence intensity by FDSS 3000 was started, and 40 μL of DMSO solutions containing different concentrations of the test compound as prepared by dilution with dilution buffer (20 mM HEPES, 137 mM NaCl, 2.7 mM KCl, 0.9 mM MgCl2, 5.0 mM CaCl2, 5.6 mM D-glucose, 2.5 mM probenecid, 0.1% Pluronic F-127, pH7.5) were dispensed to each well through the built-in automatic dispenser. Five minutes after, 40 nM ATP solution (50 μL) prepared by dilution with the dilution buffer was dispensed through the built-in automatic dispenser, and the measurement of fluorescence intensity was continued for 3 min. For each well, the specific maximum fluorescence intensity was calculated as the ratio of the maximum fluorescence intensity after addition of the ATP solution to the fluorescence intensity at the starting of the measurement. […] FDSS software (Hamamatsu Photonics K.K.) was used for calculation of the specific maximum fluorescence intensity. IC50 was calculated using Microsoft™ Excel™ (Microsoft Corporation) and XLfit™ (ID Business Solutions Ltd.).
Work on `COC(=O)COc1ccccc1C1C(C(=O)C(C)(C)C)=C(O)C(=O)N1c1ccc(-c2cccs2)cc1` (stereo not shown) [Compound I-113] yielded an IC50 of 12 nM.
In the case of `COC(=O)COc1ccccc1C1C(C(=O)C(C)(C)C)=C(O)C(=O)N1c1ccc(-c2ccsc2)cc1` (stereo not shown) [Compound I-114], the IC50 is reported as 12 nM.
In the case of `COc1ncccc1C1C(C(=O)C(C)(C)C)=C(O)C(=O)N1c1ccc(-c2cccs2)cc1` (stereo not shown) [Compound I-115], the IC50 is reported as 108 nM.
`COc1ncccc1C1C(C(=O)C(C)(C)C)=C(O)C(=O)N1c1ccc(-c2ccsc2)cc1` (stereo not shown) [Compound I-116] gave an IC50 of 77 nM.
With `COc1ncccc1C1C(C(=O)C(C)(C)C)=C(O)C(=O)N1c1ccc(-c2ccco2)cc1` (stereo not shown) [Compound I-117] the IC50 was 383 nM.
In the case of `COc1ncccc1C1C(C(=O)C(C)(C)C)=C(O)C(=O)N1c1ccc(-c2ccoc2)cc1` (stereo not shown) [Compound I-118], the IC50 is reported as 282 nM.
`CC(C)(C)C(=O)C1=C(O)C(=O)N(c2ccc(-c3cccs3)cc2)C1c1ccccc1OCC(=O)O` (stereo not shown) [Compound I-119] showed an IC50 of 98 nM.
Compound `COc1ncccc1C1C(C(=O)C(C)(C)C)=C(O)C(=O)N1c1ccc(-c2cccs2)nc1` (stereo not shown) [Compound I-122] has an IC50 of 342 nM.
Work on `COCCOc1ccccc1C1C(C(=O)C(C)(C)C)=C(O)C(=O)N1c1ccc(-c2cccs2)cc1` (stereo not shown) [Compound I-123] yielded an IC50 of 13 nM.
In the case of `COc1ccc(C(=O)C2=C(O)C(=O)N(c3nc4cc(OC)ccc4s3)C2c2ccccc2OCCO)cc1` (stereo not shown) [Compound I-125], the IC50 is reported as 110 nM.
Work on `COc1ccc(C(=O)C2=C(O)C(=O)N(c3nc4ccc(OC)cc4s3)C2c2ccccc2OCCO)cc1` (stereo not shown) [Compound I-126] yielded an IC50 of 15 nM.
For `COCCOc1ccccc1C1C(C(=O)C(C)(C)C)=C(O)C(=O)N1c1ccc(-c2nc(C)no2)cc1` (stereo not shown) [Compound I-128], the IC50 was 155 nM.
In the case of `COCCOc1ccccc1C1C(C(=O)C(C)(C)C)=C(O)C(=O)N1c1ccc(-c2noc(C)n2)cc1` (stereo not shown) [Compound I-129], the IC50 is reported as 91 nM.
With `COCCOc1ccccc1C1C(C(=O)C(C)(C)C)=C(O)C(=O)N1c1ccc(SC)cc1` (stereo not shown) [Compound I-130] the IC50 was 476 nM.
With `COc1ccc(C(=O)C2=C(O)C(=O)N(c3ccc(-c4ccon4)cc3)C2c2ccc(Br)cc2OC)cc1` (stereo not shown) [Compound I-131] the IC50 was 251 nM.
`COCCOc1ccccc1C1C(C(=O)C(C)(C)C)=C(O)C(=O)N1c1ccc(-c2ccco2)cc1` (stereo not shown) [Compound I-132] was tested, and the IC50 was 43 nM.
For `COC(=O)COc1ccccc1C1C(C(=O)C(C)(C)C)=C(O)C(=O)N1c1ccc(-c2ccon2)cc1` (stereo not shown) [Compound I-133], the IC50 was 367 nM.
`CC(C)(C)C(=O)C1=C(O)C(=O)N(c2ccc(-c3ccon3)cc2)C1c1ccccc1OCC(=O)O` (stereo not shown) [Compound I-134] gave an IC50 of 776 nM.
For `CN(C)CCOc1ccccc1C1C(C(=O)C(C)(C)C)=C(O)C(=O)N1c1ccc(-c2ccon2)cc1` (stereo not shown) [Compound I-137], the IC50 was 615 nM.
`COCCOc1ncccc1C1C(C(=O)C(C)(C)C)=C(O)C(=O)N1c1ccc(-c2ccsc2)cc1` (stereo not shown) [Compound I-138] gave an IC50 of 16 nM.
With `COCCOc1ncccc1C1C(C(=O)C(C)(C)C)=C(O)C(=O)N1c1ccc(-c2ccon2)cc1` (stereo not shown) [Compound I-139] the IC50 was 930 nM.
`Cc1ncccc1C1C(C(=O)C(C)(C)C)=C(O)C(=O)N1c1ccc(-c2cccs2)cc1` (stereo not shown) [Compound I-141] showed an IC50 of 346 nM.
In the case of `Cc1ncccc1C1C(C(=O)C(C)(C)C)=C(O)C(=O)N1c1ccc(-c2ccco2)cc1` (stereo not shown) [Compound I-142], the IC50 is reported as 315 nM.
`Cc1ncccc1C1C(C(=O)C(C)(C)C)=C(O)C(=O)N1c1ccc(-c2ccsc2)cc1` (stereo not shown) [Compound I-143] showed an IC50 of 331 nM.
For `CC(C)(C)C(=O)C1=C(O)C(=O)N(c2ccc(-c3ccon3)cc2)C1c1ccccc1OCC(N)=O` (stereo not shown) [Compound I-144], the IC50 was 365 nM.
In the case of `CNC(=O)COc1ccccc1C1C(C(=O)C(C)(C)C)=C(O)C(=O)N1c1ccc(-c2ccon2)cc1` (stereo not shown) [Compound I-146], the IC50 is reported as 727 nM.
`CNC(=O)COc1ccccc1C1C(C(=O)C(C)(C)C)=C(O)C(=O)N1c1ccc(-c2ccsc2)cc1` (stereo not shown) [Compound I-147] gave an IC50 of 17 nM.
In the case of `COCCOc1ncccc1C1C(C(=O)C(C)(C)C)=C(O)C(=O)N1c1ccc(-c2cccs2)cc1` (stereo not shown) [Compound I-149], the IC50 is reported as 15 nM.
For `COCCOc1ncccc1C1C(C(=O)C(C)(C)C)=C(O)C(=O)N1c1ccc(SC)cc1` (stereo not shown) [Compound I-150], the IC50 was 415 nM.
Work on `CC(C)(C)C(=O)C1=C(O)C(=O)N(c2ccc(-c3ccsc3)cc2)C1c1ccccc1OCC(N)=O` (stereo not shown) [Compound I-151] yielded an IC50 of 8 nM.
In the case of `C[S+]([O-])CCOc1ccccc1C1C(C(=O)C(C)(C)C)=C(O)C(=O)N1c1ccc(-c2ccon2)cc1` (stereo not shown) [Compound I-152], the IC50 is reported as 219 nM.
`COCCOc1ccccc1C1C(C(=O)C(C)(C)C)=C(O)C(=O)N1c1ccc(-c2cc[nH]c2)cc1` (stereo not shown) [Compound I-153] gave an IC50 of 216 nM.
Compound `CC(C)(C)C(=O)C1=C(O)C(=O)N(c2ccc(-c3cc[nH]c3)cc2)C1c1ccccc1OCCO` (stereo not shown) [Compound I-154] has an IC50 of 192 nM.
With `COCCOc1ccccc1C1C(C(=O)C(C)(C)C)=C(O)C(=O)N1c1ccc(-c2ccoc2)cc1` (stereo not shown) [Compound I-156] the IC50 was 32 nM.
`CC(C)C(=O)C1=C(O)C(=O)N(c2ccc(-c3ccsc3)cc2)C1c1ccccc1OCCN(C)C` (stereo not shown) [Compound I-157] was tested, and the IC50 was 25 nM.
`CC(C)C(=O)C1=C(O)C(=O)N(c2ccc(-c3ccsc3)cc2)C1c1ccccc1OCCN(C)C` (stereo not shown) [Compound I-158] was tested, and the IC50 was 23 nM.
Compound `COCCOc1ccccc1C1C(C(=O)C(C)C)=C(O)C(=O)N1c1ccc(-c2ccsc2)cc1` (stereo not shown) [Compound I-161] has an IC50 of 7 nM.
With `COCc1ncccc1C1C(C(=O)C(C)(C)C)=C(O)C(=O)N1c1ccc(-c2ccsc2)cc1` (stereo not shown) [Compound I-162] the IC50 was 41 nM.
Work on `COCCOc1ncccc1C1C(C(=O)C(C)(C)C)=C(O)C(=O)N1c1ccc(-c2ccoc2)cc1` (stereo not shown) [Compound I-164] yielded an IC50 of 74 nM.
With `CC(C)(C)C(=O)C1=C(O)C(=O)N(c2ccc(-c3ccoc3)cc2)C1c1cccnc1OCCO` (stereo not shown) [Compound I-165] the IC50 was 95 nM.
Work on `CC(C)(C)C(=O)C1=C(O)C(=O)N(c2ccc(-c3ccsc3)cc2)C1c1cccnc1OCCO` (stereo not shown) [Compound I-166] yielded an IC50 of 19 nM.
Compound `COCCOCc1ncccc1C1C(C(=O)C(C)(C)C)=C(O)C(=O)N1c1ccc(-c2ccsc2)cc1` (stereo not shown) [Compound I-168] has an IC50 of 120 nM.
`COCCOc1ncccc1C1C(C(=O)C(C)C)=C(O)C(=O)N1c1ccc(-c2ccsc2)cc1` (stereo not shown) [Compound I-169] gave an IC50 of 19 nM.
Compound `CSc1ccc(N2C(=O)C(O)=C(C(=O)C(C)(C)C)C2c2cccnc2OCCO)cc1` (stereo not shown) [Compound I-171] has an IC50 of 610 nM.
Compound `CC(C)(C)C(=O)C1=C(O)C(=O)N(c2ccc(-c3cccs3)cc2)C1c1cccnc1OCCO` (stereo not shown) [Compound I-172] has an IC50 of 24 nM.
`CC(C)(C)C(=O)C1=C(O)C(=O)N(c2ccc(-c3ccco3)cc2)C1c1cccnc1OCCO` (stereo not shown) [Compound I-173] was tested, and the IC50 was 137 nM.
Compound `COCCOc1ncccc1C1C(C(=O)C(C)C)=C(O)C(=O)N1c1ccc(-c2noc(C)n2)cc1` (stereo not shown) [Compound I-174] has an IC50 of 572 nM.
`CC(C)C(=O)C1=C(O)C(=O)N(c2ccc(-c3ccsc3)cc2)C1c1cccnc1OCCO` (stereo not shown) [Compound I-176] gave an IC50 of 46 nM.
`Cc1nc(-c2ccc(N3C(=O)C(O)=C(C(=O)C(C)C)C3c3cccnc3OCCO)cc2)no1` (stereo not shown) [Compound I-178] gave an IC50 of 374 nM.
With `CC(C)C(=O)C1=C(O)C(=O)N(c2ccc(-c3ccon3)cc2)C1c1cccnc1OCCO` (stereo not shown) [Compound I-179] the IC50 was 659 nM.
Compound `CC(C)(C)C(=O)C1=C(O)C(=O)N(c2ccc(-c3ccsc3)cc2)C1c1ccccc1OCC#N` (stereo not shown) [Compound I-180] has an IC50 of 5 nM.
With `COC(=O)COCc1ncccc1C1C(C(=O)C(C)(C)C)=C(O)C(=O)N1c1ccc(-c2ccsc2)cc1` (stereo not shown) [Compound I-181] the IC50 was 114 nM.
With `CC(C)C(=O)C1=C(O)C(=O)N(c2ccc(-c3ccsc3)cc2)C1c1ccccc1OCC#N` (stereo not shown) [Compound I-183] the IC50 was 4 nM.
`CC(C)(C)C(=O)C1=C(O)C(=O)N(c2ccc(-c3ccsc3)cc2)C1c1ccccc1C(=O)O` (stereo not shown) [Compound I-184] showed an IC50 of 163 nM.
With `CC(C)C(=O)C1=C(O)C(=O)N(c2ccc(-c3ccsc3)cc2)C1c1ccccc1OCC(=O)O` (stereo not shown) [Compound I-185] the IC50 was 111 nM.
`COCc1ccccc1C1C(C(=O)C(C)C)=C(O)C(=O)N1c1ccc(-c2ccsc2)cc1` (stereo not shown) [Compound I-186] was tested, and the IC50 was 13 nM.
With `COc1ncccc1C1C(C(=O)C(C)C)=C(O)C(=O)N1c1ccc(-c2ccsc2)cc1` (stereo not shown) [Compound I-187] the IC50 was 86 nM.
`CNC(=O)COc1ccccc1C1C(C(=O)C(C)C)=C(O)C(=O)N1c1ccc(-c2ccsc2)cc1` (stereo not shown) [Compound I-188] was tested, and the IC50 was 22 nM.
`CC(C)C(=O)C1=C(O)C(=O)N(c2ccc(-c3ccsc3)cc2)C1c1ccccc1OCC(N)=O` (stereo not shown) [Compound I-189] showed an IC50 of 14 nM.
`CC(C)C(=O)C1=C(O)C(=O)N(c2ccc(-c3ccoc3)cc2)C1c1ccccc1OCCO` (stereo not shown) [Compound I-190] was tested, and the IC50 was 40 nM.
Compound `CC(C)C(=O)C1=C(O)C(=O)N(c2ccc(-c3ccon3)cc2)C1c1ccccc1OCCO` (stereo not shown) [Compound I-191] has an IC50 of 279 nM.
